Laboratory results from PMC8954220, “Sparsomycin Exhibits Potent Antiplasmodial Activity In Vitro and In Vivo” (Pharmaceutics, 2022).
Read-outs that look alike come from different tables or passages of the source.

How the values were obtained:
[1] = tested on: P. falciparum K1; test: SYBR Green I-based fluorescence in vitro growth inhibition assay; format: cell-based, Plasmodium falciparum; conditions: for IC50: Plasmodium falciparum, read-out: IC50 P. falciparum K1
Experimental: (§1) P. falciparum strains 3D7 and K1 were cultivated in 2% washed human O-positive erythrocytes (supplied by Japanese Red Cross Society, Hokkaido, Japan) using a multi-gas incubator (37 °C, 5% CO2 and 5% O2).
(§2) Briefly, test compounds were diluted in complete medium to eight desired concentrations (2-fold serial dilution). […] Next, 50 μL of synchronous parasites at 0.5% parasitemia and 2% hematocrit was seeded in a 96-well plate containing 50 μL of test compounds. The 96-well plate was incubated for 72 h at 37 °C, 5% CO2 and 5% O2. Next, 100 μL of lysis buffer containing 0.02% (v/v) SYBR Green I was added to each well and mixed and then the 96-well plate was incubated at room temperature for 2 h in the dark. […] Erythrocytes treated with 1% DMSO were used as a negative control and wells containing only test compounds and erythrocytes were used to correct background signals. In at least three independent trials, the inhibition assay was performed in quadruplicate for each concentration.

[2] = tested on: P. falciparum 3D7; test: as above; format: cell-based, Plasmodium falciparum; conditions: for IC50: Plasmodium falciparum, read-out: IC50 P. falciparum 3D7
Experimental: as §1, §2

[3] = tested on: P. falciparum 3D7; test: Microscopic analysis of parasitemia and morphology (Giemsa-stained thin blood smears); format: cell-based, Plasmodium falciparum
Experimental: The parasites were tightly synchronized using a two-step sorbitol treatment protocol and used at the ring stage with 0.5% parasitemia and 2% hematocrit. Sm (50 and 10 nM) in complete medium and 1% DMSO in complete medium were used as the treated and untreated groups, respectively, in this assay. Subsequently, the Giemsa-stained thin blood smears of each treatment group were prepared after 1, 24, 48, or 72 h of incubation. After 72 h, incubation was continued after changing the medium in either the presence (unwashed group) or absence (washed group) of Sm for up to 144 h. Subsequently, the Giemsa-stained thin blood smears of each treatment group were prepared at 96, 120 and 144 h. The blood smears were observed using a BZ-900 all-in-one microscope (Keyence BioRevo, Tokyo, Japan). The parasitemia levels were determined by enumerating the number of infected erythrocytes in relation to uninfected erythrocytes (a minimum of 500 cells were counted). The assay was performed in triplicate for each concentration and time point.

[4] = tested on: P. yoelii 17XNL; test: Uncomplicated rodent malaria model, 7-day treatment (modified Peters' test); format: in vivo, C57BL/6 J mice
Experimental: (§3) Male C57BL/6 J mice (8 weeks old with body weight of 20–25 g; six mice per group) were purchased from Japan CLEA (Tokyo, Japan). The mice were allowed free access to water and food (CLEA Rodent Diet CE-2; Japan CLEA, Tokyo, Japan). The room temperature (24 °C), relative humidity (50%) and lighting (light from 8 a.m. to 8 p.m.) were adjusted and controlled. P. yoelii 17XNL and P. berghei ANKA were recovered from frozen packed erythrocyte stocks via passage in mice following intraperitoneal (i.p.) injection. Challenge experiments were performed with i.p. injections of 1 × 10^7 fresh infected erythrocytes from donor mice (designated as 0 days post-infection (dpi)). Approximately 2 h after the injection, 2 μL of blood was collected from the tip of the mice’s tail and the parasitemia levels were checked using Giemsa-stained thin blood smears. When the parasitemia level reached 1%, the infected mice were intraperitoneally treated with vehicle (1 × PBS) or Sm at a dose of 100 or 300 μg/kg (modified from reported IC50 in Ref. [22]) once daily for 7 days (0–6 dpi; modified Peters’ test) for P. yoelii 17XNL and 300 μg/kg once daily for 4 (0–3 dpi; Peters’ 4-day test) or 7 days (0–6 dpi, [23]) for P. berghei ANKA. The survival and clinical signs of mice were monitored daily after infection. Mice with high clinical signs (arched back, immobility, >20% body weight loss and pain sign) were euthanized immediately. Parasitemia in P. yoelii 17XNL-infected mice was observed daily using Giemsa-stained thin blood smears (up to 30 dpi).
A p-value of <0.05 was considered statistically significant and is shown as an asterisk or a symbol, defined in each table/figure legend together with the name of the test used.

[5] = tested on: mice; conditions: i.p. administration; cited from earlier work
[6] = tested on: retinas of animals; parameters: method as in PMID 3310108; conditions: animals treated with toxic doses; cited from earlier work
[7] = Erythrocyte hemolysis assay; format: cell-based; conditions: human, 3 h at 37 °C, mean ± SD, read-out: RBC Hemolysis Rate (%) at 100 μM
Experimental: An erythrocyte hemolysis assay was performed as previously described [21]. Briefly, 100 μL of each compound (final concentration, 100 μM) in 1× phosphate-buffered saline (PBS) was seeded in a 96-well plate and 100 μL of a 3% erythrocyte suspension in PBS was added. The plate was incubated for 3 h at 37 °C, 5% CO2 and 5% O2 and then centrifuged at 1300× g for 5 min. Subsequently, 100 μL of the supernatant of each mixture was transferred to a new 96-well plate and the absorbance was recorded at 540 nm. […] The erythrocyte hemolysis rate was calculated using the following formula: hemolysis rate = ([Asample − Anegative control]/[Apositive control − Anegative control] × 100), where A is absorbance [21]. The experiments were performed in triplicate and repeated three times independently.

[8] = In vitro cytotoxicity, cell viability assay (CCK-8); conditions: human, human foreskin fibroblasts (HFFs)
Experimental: A cell viability assay was used to evaluate the cytotoxic action of Sm as described previously [18]. Briefly, a 100 μL cell suspension was seeded in a 96-well plate at a concentration of 1 × 10^5 cells/mL in DMEM containing 10% FBS and incubated for 48 h at 37 °C and 5% CO2. Next, 2-fold dilutions (total of eight concentrations) of test compounds in DMEM were added in quadruplicate to each well and incubated for an additional 72 h.
Data were analyzed using GraphPad Prism 8 (GraphPad Software, Inc., La Jolla, CA, USA). IC50 or CC50 values were calculated from three independent experiments using a non-linear regression fit to logarithm concentration value of the compound versus inhibition percentage of parasite or cell growth, respectively.

[9] = tested on: patients (with advanced carcinoma); parameters: method as in PMID 5928140; conditions: daily doses; after 13 days (total dose 0.24 mg/kg) and 15 days (total dose 0.15 mg/kg); cited from earlier work
[10] = tested on: P. berghei ANKA; test: Complicated rodent malaria model, survival (Peters' 4-day test or 7-day regimen); format: in vivo, C57BL/6 J mice; conditions: up to 25 dpi
Experimental: as §3, with “Mice with high clinical signs (arched back, immobility, >20% body weight loss and pain sign) were euthanized immediately. Parasitemia in P. yoelii 17XNL-infected mice was observed daily using Giemsa-stained thin blood smears (up to 30 dpi).” left out

CCN(CC)CCCC(C)Nc1ccnc2cc(Cl)ccc12 (stereo not drawn) [Chloroquine, Chloroquine diphosphate, reference compound]
IC50 ([1]; K1, 72 h): 740 ± 95.7 nM | IC50 ([2]; 3D7, 72 h): 26.2 ± 3.66 nM

C[C@@H]1CC[C@H]2[C@@H](C)C(=O)O[C@@H]3O[C@@]4(C)CC[C@@H]1[C@]32OO4 [Artemisinin, artemisinin, reference compound]
IC50 ([1]; K1, 72 h exposure, mean ± SD of three independent experiments): 19.9 ± 1.51 nM | IC50 ([2]; 3D7, 72 h exposure, mean ± SD of three independent experiments): 13.2 ± 2.66 nM

CSC[S@+]([O-])C[C@H](CO)NC(=O)/C=C/c1c(C)[nH]c(=O)[nH]c1=O [Sparsomycin, sparsomycin]
IC50 ([1]; K1, 72 h): 25.4 ± 8.15 nM | Resistance Index ([1]; ratio between the IC50 values of P. falciparum K1 and 3D7): 2.1 | SI for P. falciparum K1 ([1]; selectivity index, ratio between IC50 (K1) and CC50 (HFF)): 44.83 | IC50 ([2]; 3D7, 72 h): 12.1 ± 4.41 nM | SI for P. falciparum 3D7 ([2]; selectivity index, ratio between IC50 (3D7) and CC50 (HFF)): 94.45 | Parasite morphology ([3]; 50 nM for 72 h): induced morphological alterations, including shrinkage | Parasitemia levels along the incubation period ([3]; 10 or 50 nM, 1–72 h): not increased | Parasite life cycle stage under exposure ([3]; 10 or 50 nM, 1–72 h of incubation, ring-stage synchronized): blocked in the ring stage | Parasite growth after removal of compound (washed group) ([3]; 72 h exposure to 10 or 50 nM, then further 72 h without compound (up to 144 h)): not restored | Parasitemia levels versus control ([4]; 100 μg/kg i.p. once daily for 7 days): did not significantly alter | Parasitemia versus control ([4]; 300 μg/kg i.p. once daily for 7 days): significantly reduced | Parasitemia peak ([4]; 300 μg/kg i.p. once daily for 7 days, peak at 11 dpi, control 40.13% (12 dpi)): 18.85% | Mortality ([4]; 100 or 300 μg/kg i.p. once daily for 7 days, up to 30 dpi): No mortality | LD50 [5]: 170 to 380 μg/kg per injection | Pathological changes in the retinas [6]: no observable pathological changes | hemolysis at 3 h, 100 µM [7]: 1.04 ± 0.23% | CC50 at 72 h [8]: 1140 ± 30 nM | Patients developing ring scotoma (Sm-related retinopathy) [9]: two out of five patients | Prolongation of survival ([10]; 300 μg/kg i.p. once daily for 4 days, significant (p < 0.05)): 33.33% | Prolongation of survival ([10]; 300 μg/kg i.p. once daily for 7 days, statistically insignificant (p > 0.05)): 33.33%
